Measurements taken from ChEMBL document CHEMBL1201862, “PubChem BioAssay data set” (2004).
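Briefly, cells in 96-well plates were exposed to five compound concentrations for 48 h, and endpoints were estimated by linear interpolation. Abbreviation: GI50, concentration required for 50% inhibition of growth.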 Activity calls are given as the source filed them. Cut-off read from the data, not from the text of the source: active = GI50 up to about 1.1 µM and inactive = higher.

Key:
Experiment in all cases: NCI-60 cell line screen, 48 h
786-0 = test system: 786-0
A498 = test system: A498
A549 = test system: A549
ACHN = test system: ACHN
BT-549 = test system: BT-549
CAKI-1 = test system: CAKI-1
CCRF-CEM = test system: CCRF-CEM
COLO 205 = test system: COLO 205
DU-145 = test system: DU-145
EKVX = test system: EKVX
HCC 2998 = test system: HCC 2998
HCT-116 = test system: HCT-116
HCT-15 = test system: HCT-15
HL-60 = test system: HL-60
HT-29 = test system: HT-29
Hs-578T = test system: Hs-578T
IGROV-1 = test system: IGROV-1
K562 = test system: K562
KM12 = test system: KM12
LOX IMVI = test system: LOX IMVI
M14 = test system: M14
MCF7 = test system: MCF7
MDA-MB-231 = test system: MDA-MB-231
MDA-MB-435 = test system: MDA-MB-435
MDA-N = test system: MDA-N
MOLT-4 = test system: MOLT-4
Malme-3M = test system: Malme-3M
NCI-H226 = test system: NCI-H226
NCI-H23 = test system: NCI-H23
NCI-H460 = test system: NCI-H460
NCI/ADR-RES = test system: NCI/ADR-RES
OVCAR-3 = test system: OVCAR-3
OVCAR-4 = test system: OVCAR-4
OVCAR-5 = test system: OVCAR-5
OVCAR-8 = test system: OVCAR-8
PC-3 = test system: PC-3
RXF 393 = test system: RXF 393
SF-268 = test system: SF-268
SF-295 = test system: SF-295
SF-539 = test system: SF-539
SK-MEL-28 = test system: SK-MEL-28
SK-MEL-2 = test system: SK-MEL-2
SK-MEL-5 = test system: SK-MEL-5
SK-OV-3 = test system: SK-OV-3
SN12C = test system: SN12C
SNB-19 = test system: SNB-19
SNB-75 = test system: SNB-75
SW-620 = test system: SW-620
T47D = test system: T47D
TK-10 = test system: TK-10
U-251 = test system: U-251
UACC-257 = test system: UACC-257
UACC-62 = test system: UACC-62
UO-31 = test system: UO-31
HOP-62 = test system: HOP-62
HOP-92 = test system: HOP-92
NCI-H522 = test system: NCI-H522
RPMI-8226 = test system: RPMI-8226

For `CC(C)C(NC(=O)Oc1ccccc1)C(=O)NC1c2c(Br)sc(Br)c2C(=O)C1O` (centres undefined), the GI50 (786-0) was 8.79 µM (inactive), the GI50 (A498) was > 25 µM (inactive) and the GI50 (A549) was > 25 µM (inactive). The GI50 (ACHN) was 5.56 µM (inactive), the GI50 (BT-549) was 3.67 µM (inactive) and the GI50 (CAKI-1) was 6.81 µM (inactive). The GI50 (CCRF-CEM) was 7.62 µM (inactive), the GI50 (COLO 205) was 7.29 µM (inactive) and the GI50 (DU-145) was 9.4 µM (inactive). For the same compound, the GI50 (EKVX) was 6.4 µM (inactive), the GI50 (HCC 2998) was 4.2 µM (inactive) and the GI50 (HCT-116) was 3.97 µM (inactive). The GI50 (HCT-15) was 4.25 µM, the GI50 (HL-60) was 9.12 µM (inactive) and the GI50 (HT-29) was 4.2 µM (inactive). The GI50 (Hs-578T) was 8.95 µM (inactive), the GI50 (IGROV-1) was 4.47 µM (inactive) and the GI50 (K562) was 7.8 µM (inactive). The GI50 (KM12) was > 25 µM (inactive), the GI50 (LOX IMVI) was 4.98 µM (inactive) and the GI50 (M14) was 4.58 µM (inactive). The GI50 (MCF7) was > 25 µM (inactive), the GI50 (MDA-MB-231) was 5.11 µM (inactive) and the GI50 (MDA-MB-435) was 6.68 µM (inactive). The GI50 (MDA-N) was 11.6 µM (inactive), the GI50 (MOLT-4) was 11.9 µM (inactive) and the GI50 (Malme-3M) was 6.38 µM (inactive). For the same compound, the GI50 (NCI-H226) was > 25 µM (inactive), the GI50 (NCI-H23) was 4.8 µM (inactive) and the GI50 (NCI-H460) was 5.02 µM (inactive). For the same compound, the GI50 (NCI/ADR-RES) was 5.87 µM (inactive), the GI50 (OVCAR-3) was 4.14 µM (inactive) and the GI50 (OVCAR-4) was 2.94 µM (inactive). The GI50 (OVCAR-5) was 4.91 µM (inactive), the GI50 (OVCAR-8) was 4.6 µM (inactive) and the GI50 (PC-3) was 8.53 µM (inactive). For the same compound, the GI50 (RXF 393) was 3.75 µM (inactive), the GI50 (SF-268) was 6.24 µM (inactive) and the GI50 (SF-295) was > 25 µM (inactive). For the same compound, the GI50 (SF-539) was 14.2 µM (inactive), the GI50 (SK-MEL-28) was 4.93 µM (inactive) and the GI50 (SK-MEL-2) was 7.33 µM (inactive). The GI50 (SK-MEL-5) was 4.53 µM (inactive), the GI50 (SK-OV-3) was > 25 µM (inactive) and the GI50 (SN12C) was 5.62 µM (inactive). For the same compound, the GI50 (SNB-19) was 4.93 µM (inactive), the GI50 (SNB-75) was > 25 µM (inactive) and the GI50 (SW-620) was 6.1 µM (inactive). The GI50 (T47D) was 6.34 µM (inactive), the GI50 (TK-10) was 8.49 µM (inactive) and the GI50 (U-251) was 5.31 µM (inactive). The GI50 (UACC-257) was 4.72 µM (inactive), the GI50 (UACC-62) was 4.02 µM (inactive) and the GI50 (UO-31) was 9.64 µM (inactive).

`CC1(C)[C@H]2Cc3cc4nc5ccccn5c4cc3[C@@H]1C2` was tested, and the GI50 (786-0) was 17.2 µM (inactive), the GI50 (A549) was 16.4 µM (inactive) and the GI50 (ACHN) was 18.7 µM (inactive). For the same compound, the GI50 (BT-549) was 24.9 µM (inactive), the GI50 (CAKI-1) was 14.1 µM (inactive) and the GI50 (CCRF-CEM) was 31.3 µM (inactive). The GI50 (COLO 205) was 18.4 µM (inactive), the GI50 (DU-145) was 20.8 µM (inactive) and the GI50 (EKVX) was 15.9 µM (inactive). For the same compound, the GI50 (HCC 2998) was 18.3 µM (inactive), the GI50 (HCT-116) was 17.5 µM (inactive) and the GI50 (HCT-15) was 19.2 µM. For the same compound, the GI50 (HL-60) was 22.4 µM (inactive), the GI50 (HOP-62) was 18.7 µM (inactive) and the GI50 (HOP-92) was 14.5 µM (inactive). The GI50 (HT-29) was 14.1 µM (inactive), the GI50 (Hs-578T) was 15.6 µM (inactive) and the GI50 (IGROV-1) was 19 µM (inactive). The GI50 (K562) was 19.8 µM (inactive), the GI50 (KM12) was 18.6 µM (inactive) and the GI50 (LOX IMVI) was 19.6 µM (inactive). For the same compound, the GI50 (M14) was 19.8 µM (inactive), the GI50 (MCF7) was 3.37 µM (inactive) and the GI50 (MDA-MB-231) was 13 µM (inactive). The GI50 (MDA-MB-435) was 15.3 µM (inactive), the GI50 (MDA-N) was 17.3 µM (inactive) and the GI50 (MOLT-4) was 27.1 µM (inactive). For the same compound, the GI50 (Malme-3M) was 12.4 µM (inactive), the GI50 (NCI-H226) was 16.2 µM (inactive) and the GI50 (NCI-H23) was 17 µM (inactive). For the same compound, the GI50 (NCI-H460) was 18.4 µM (inactive), the GI50 (NCI-H522) was 4.58 µM (inactive) and the GI50 (NCI/ADR-RES) was 18.2 µM (inactive). The GI50 (OVCAR-3) was 17.5 µM (inactive), the GI50 (OVCAR-4) was 12 µM (inactive) and the GI50 (OVCAR-5) was 13.9 µM (inactive). The GI50 (OVCAR-8) was 14.6 µM (inactive), the GI50 (PC-3) was 17.9 µM (inactive) and the GI50 (RPMI-8226) was 14.5 µM (inactive). For the same compound, the GI50 (SF-268) was 17.6 µM (inactive), the GI50 (SF-295) was 15.2 µM (inactive) and the GI50 (SF-539) was 16.4 µM (inactive). For the same compound, the GI50 (SK-MEL-28) was 16 µM (inactive), the GI50 (SK-MEL-2) was 15.5 µM (inactive) and the GI50 (SK-MEL-5) was 17.6 µM (inactive). The GI50 (SK-OV-3) was 17.3 µM (inactive), the GI50 (SN12C) was 19.2 µM (inactive) and the GI50 (SNB-19) was 16 µM (inactive). The GI50 (SNB-75) was 13.6 µM (inactive), the GI50 (SW-620) was 20.8 µM (inactive) and the GI50 (T47D) was 20.7 µM (inactive). For the same compound, the GI50 (TK-10) was 16.3 µM (inactive), the GI50 (U-251) was 15.7 µM (inactive) and the GI50 (UACC-257) was 17.6 µM (inactive). The GI50 (UACC-62) was 15.6 µM (inactive) and the GI50 (UO-31) was 14 µM (inactive).

With `c1ccc(CNC2CC(NCc3ccccn3)CC(NCc3ccccn3)C2)nc1` (centres undefined) the GI50 (786-0) was 3.02 µM (inactive), the GI50 (A498) was 1.82 µM (inactive) and the GI50 (A549) was 2.61 µM (inactive). For the same compound, the GI50 (ACHN) was 12.5 µM (inactive), the GI50 (BT-549) was 6.79 µM (inactive) and the GI50 (CCRF-CEM) was 2.92 µM (inactive). For the same compound, the GI50 (COLO 205) was 1.81 µM (inactive), the GI50 (DU-145) was 3.14 µM (inactive) and the GI50 (HCC 2998) was 1.98 µM (inactive). The GI50 (HCT-116) was 2.23 µM (inactive), the GI50 (HCT-15) was 4.21 µM and the GI50 (HOP-62) was 5.47 µM (inactive). For the same compound, the GI50 (HOP-92) was 3.24 µM (inactive), the GI50 (Hs-578T) was 8.28 µM (inactive) and the GI50 (IGROV-1) was 3.21 µM (inactive). The GI50 (KM12) was 1.73 µM (inactive), the GI50 (MCF7) was 2.29 µM (inactive) and the GI50 (MDA-MB-435) was 3.28 µM (inactive). The GI50 (MDA-N) was 3.42 µM (inactive), the GI50 (MOLT-4) was 3.96 µM (inactive) and the GI50 (Malme-3M) was 3.56 µM (inactive). The GI50 (NCI-H226) was 2.32 µM (inactive), the GI50 (NCI-H460) was 2.6 µM (inactive) and the GI50 (NCI-H522) was 2.62 µM (inactive). For the same compound, the GI50 (OVCAR-3) was 3.33 µM (inactive), the GI50 (OVCAR-4) was 2.88 µM (inactive) and the GI50 (SF-268) was 4.53 µM (inactive). For the same compound, the GI50 (SF-295) was 4.18 µM (inactive), the GI50 (SK-MEL-28) was 4.75 µM (inactive) and the GI50 (SK-MEL-2) was 2.58 µM (inactive). For the same compound, the GI50 (SK-MEL-5) was 2.25 µM (inactive), the GI50 (SK-OV-3) was 2.82 µM (inactive) and the GI50 (SN12C) was 5.97 µM (inactive). For the same compound, the GI50 (SNB-75) was 2.97 µM (inactive), the GI50 (SW-620) was 4.11 µM (inactive) and the GI50 (T47D) was 4.61 µM (inactive). For the same compound, the GI50 (TK-10) was 4.58 µM (inactive), the GI50 (UACC-257) was 6.65 µM (inactive) and the GI50 (UO-31) was 16.7 µM (inactive).
